Experimental data taken from patent US9226929B2, “Pharmaceutically active disubstituted triazine derivatives” (Bayer Intellectual Property GMBH, priority 2011, dated 2016).

Test system: cellular CDK9 activity (RNA Polymerase II Ser2 phosphorylation)
Assay: RNA-Polymerase II Ser2 Cellular Phosphorylation Assay
Assay type: cell-based
Conditions: Homo sapiens; HCT-116 cells, normalized with tubulin; read-out: RNA Polymerase II Ser2 Phosphorylation (activity range), IC50
Experimental: 3.1 RNA-Polymerase II Ser2 Cellular Phosphorylation Assay:
HCT-116 cells (DSMZ, Braunschweig, Germany) were maintained in Mc Coy's cell culture medium+glutamine (PAN Biotech GmbH, Aidenbach, Germany) supplemented with 10% fetal calf serum (PAA Laboratories GmbH, Pasching, Austria) and grown at 37° C., 5% CO2. For the cellular phosphorylation assay, cells were seeded with 2×10^5 cells/well/1 ml in 24-well plates (Greiner Bio One, Frickenhausen, Germany; catalog #662160). The compounds of general formula (I) summarized in Table 6 were diluted from a 10 mM DMSO stock solution 1:10 in a total volume of 15 μL DMSO. After overnight incubation at 37° C./5% CO2, 1.5 μL of a compound diluted in DMSO was added to each sample well. Wells with cells and 0.15% DMSO in culture medium were used as positive controls, wells without cells and 0.15% DMSO in culture medium were used as negative controls. […] Phosphorylation of RNA Polymerase II Ser2 and tubulin levels for normalization were analyzed afterwards with the Multi-Array technology (Meso Scale Discovery, Gaithersburg, Md., USA), a combination of antibody coupled electrochemiluminescence detection and patterned arrays. […] Finally, plates were washed three times with Tris Wash Buffer, 150 μl 2× Read Buffer (Meso Scale Discovery) were added per well and plates were analyzed immediately in a Sector Imager from Meso Scale Discovery. […]

## NS(=O)(=O)Cc1cccc(Nc2ncnc(N3CCc4ncccc4C3)n2)c1 [Compound B38, 3-[(4-(7,8-Dihydro-1,6-naphthyridin-6(5H)-yl)-1,3,5-triazin-2-yl)amino]-benzenemethanesulfonamide]
  IC50: > 10 µM
